Source: the kinase profiling compilation of Christmann-Franck et al. (2016)

How the values were obtained:
Assay in all cases: KINOMEscan competition binding
AKT3 (human) = AKT3 (human) (UniProt Q9Y243)
AURKA (human) = AURKA (human) (UniProt O14965)
CDC42BPB (human) = CDC42BPB (human) (UniProt Q9Y5S2)
CDK13 (human) = CDK13 (human) (UniProt Q14004)
CDK16 (human) = CDK16 (human) (UniProt Q00536)
CDK7 (human) = CDK7 (human) (UniProt P50613)
CaMK1 (human) = CaMK1 (human) (UniProt Q14012)
DCLK2 (human) = DCLK2 (human) (UniProt Q8N568)
DSTYK (human) = DSTYK (human) (UniProt Q6XUX3)
DYRK1A (human) = DYRK1A (human) (UniProt Q13627)
EPHA3 (human) = EPHA3 (human) (UniProt P29320)
EPHA7 (human) = EPHA7 (human) (UniProt Q15375)
EPHB2 (human) = EPHB2 (human) (UniProt P29323)
FGFR2 (human) = FGFR2 (human) (UniProt P21802)
FYN (human) = FYN (human) (UniProt P06241)
GRK1 (human) = GRK1 (human) (UniProt Q15835)
GSK3A (human) = GSK3A (human) (UniProt P49840)
[1] = target: JAK2 JH1 catalytic (human) (UniProt O60674)
[2] = system: KIT (human), P10721 [V559D/V654A]
LRRK2 (human) = LRRK2 (human) (UniProt Q5S007)
MAP2K2 (human) = MAP2K2 (human) (UniProt P36507)
MAP2K4 (human) = MAP2K4 (human) (UniProt P45985)
MAP3K3 (human) = MAP3K3 (human) (UniProt Q99759)
MAP3K7 (human) = MAP3K7 (human) (UniProt O43318)
MAP3K7 (human), sequence (O43318 whole entry, looked up): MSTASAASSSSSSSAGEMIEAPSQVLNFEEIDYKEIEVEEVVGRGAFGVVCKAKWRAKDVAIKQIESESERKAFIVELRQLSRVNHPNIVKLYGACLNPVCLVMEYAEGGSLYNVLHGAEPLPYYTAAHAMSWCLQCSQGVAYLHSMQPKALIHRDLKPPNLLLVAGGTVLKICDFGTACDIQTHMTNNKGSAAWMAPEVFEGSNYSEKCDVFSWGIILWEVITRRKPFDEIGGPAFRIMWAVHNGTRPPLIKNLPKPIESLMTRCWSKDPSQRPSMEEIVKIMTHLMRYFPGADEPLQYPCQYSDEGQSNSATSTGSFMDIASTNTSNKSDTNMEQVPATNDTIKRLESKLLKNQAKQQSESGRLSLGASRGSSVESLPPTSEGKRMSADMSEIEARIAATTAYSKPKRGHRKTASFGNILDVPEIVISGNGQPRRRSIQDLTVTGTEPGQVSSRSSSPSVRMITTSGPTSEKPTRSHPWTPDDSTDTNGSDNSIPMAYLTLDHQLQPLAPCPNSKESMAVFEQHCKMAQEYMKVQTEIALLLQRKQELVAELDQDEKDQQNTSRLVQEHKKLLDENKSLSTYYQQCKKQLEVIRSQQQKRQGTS

MAP4K4 (human) = MAP4K4 (human) (UniProt O95819)
MAP4K4 (human), sequence (O95819 whole entry, looked up): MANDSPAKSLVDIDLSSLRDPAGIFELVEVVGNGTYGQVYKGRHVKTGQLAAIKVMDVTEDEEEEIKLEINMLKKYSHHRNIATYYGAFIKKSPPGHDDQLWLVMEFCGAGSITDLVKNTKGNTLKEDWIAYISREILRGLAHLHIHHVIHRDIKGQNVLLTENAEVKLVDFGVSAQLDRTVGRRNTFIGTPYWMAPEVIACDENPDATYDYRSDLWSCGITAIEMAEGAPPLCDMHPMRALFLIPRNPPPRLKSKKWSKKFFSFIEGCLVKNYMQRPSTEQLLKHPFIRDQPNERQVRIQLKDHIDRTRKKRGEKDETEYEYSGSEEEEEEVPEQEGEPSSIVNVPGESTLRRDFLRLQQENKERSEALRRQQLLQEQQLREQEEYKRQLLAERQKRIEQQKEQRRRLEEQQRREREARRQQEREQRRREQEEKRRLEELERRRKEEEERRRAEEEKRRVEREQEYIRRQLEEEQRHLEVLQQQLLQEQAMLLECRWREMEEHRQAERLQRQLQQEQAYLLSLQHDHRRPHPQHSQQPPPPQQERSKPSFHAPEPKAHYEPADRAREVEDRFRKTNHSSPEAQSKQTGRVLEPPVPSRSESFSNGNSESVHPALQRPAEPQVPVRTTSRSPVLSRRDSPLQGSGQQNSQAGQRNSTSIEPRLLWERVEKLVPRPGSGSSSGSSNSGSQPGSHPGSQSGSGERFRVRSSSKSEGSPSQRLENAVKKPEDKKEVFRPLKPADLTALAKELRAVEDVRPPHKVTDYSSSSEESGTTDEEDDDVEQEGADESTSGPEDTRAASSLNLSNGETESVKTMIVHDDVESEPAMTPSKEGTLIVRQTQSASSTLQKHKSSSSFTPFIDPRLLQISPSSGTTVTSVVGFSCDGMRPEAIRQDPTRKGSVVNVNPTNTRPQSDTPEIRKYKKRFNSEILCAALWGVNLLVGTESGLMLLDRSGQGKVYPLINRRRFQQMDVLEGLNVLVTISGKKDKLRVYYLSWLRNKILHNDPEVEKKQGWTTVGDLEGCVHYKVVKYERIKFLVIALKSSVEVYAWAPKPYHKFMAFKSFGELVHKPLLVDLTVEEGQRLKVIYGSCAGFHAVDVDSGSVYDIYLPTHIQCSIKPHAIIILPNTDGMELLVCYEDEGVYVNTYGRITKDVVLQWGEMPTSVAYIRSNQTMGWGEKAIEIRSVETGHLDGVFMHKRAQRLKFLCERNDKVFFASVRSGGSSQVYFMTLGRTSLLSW

MAPK6 (human) = MAPK6 (human) (UniProt Q16659)
MARK1 (human) = MARK1 (human) (UniProt Q9P0L2)
MATK (human) = MATK (human) (UniProt P42679)
MTOR (human) = MTOR (human) (UniProt P42345)
NEK11 (human) = NEK11 (human) (UniProt Q8NG66)
NEK7 (human) = NEK7 (human) (UniProt Q8TDX7)
NTRK1 (human) = NTRK1 (human) (UniProt P04629)
NTRK1 (human), sequence (P04629 whole entry, looked up): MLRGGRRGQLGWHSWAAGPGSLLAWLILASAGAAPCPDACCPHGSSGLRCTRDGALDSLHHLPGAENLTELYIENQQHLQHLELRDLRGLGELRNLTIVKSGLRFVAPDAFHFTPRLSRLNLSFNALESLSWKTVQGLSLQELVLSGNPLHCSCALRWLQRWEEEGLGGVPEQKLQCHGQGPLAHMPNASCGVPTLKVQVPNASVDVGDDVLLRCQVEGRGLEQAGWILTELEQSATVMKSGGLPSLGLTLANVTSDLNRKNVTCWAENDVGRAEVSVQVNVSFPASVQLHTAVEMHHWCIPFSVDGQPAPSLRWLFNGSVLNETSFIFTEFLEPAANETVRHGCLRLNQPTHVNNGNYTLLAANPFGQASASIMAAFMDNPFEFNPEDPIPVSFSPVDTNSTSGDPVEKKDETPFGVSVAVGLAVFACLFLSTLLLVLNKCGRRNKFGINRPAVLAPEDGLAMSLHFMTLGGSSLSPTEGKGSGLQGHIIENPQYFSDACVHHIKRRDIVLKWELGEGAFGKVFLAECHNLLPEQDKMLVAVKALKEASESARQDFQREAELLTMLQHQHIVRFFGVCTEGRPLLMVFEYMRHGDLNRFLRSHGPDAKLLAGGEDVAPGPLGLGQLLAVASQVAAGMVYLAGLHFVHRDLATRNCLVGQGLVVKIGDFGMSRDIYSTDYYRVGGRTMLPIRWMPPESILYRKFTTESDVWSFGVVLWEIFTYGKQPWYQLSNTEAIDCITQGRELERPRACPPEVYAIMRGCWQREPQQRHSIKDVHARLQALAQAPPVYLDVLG

PAK3 (human) = PAK3 (human) (UniProt O75914)
PIK3CA (human) = PIK3CA (human) (UniProt P42336)
[3] = system: PIK3CA (human), P42336 [I800L]
PLK1 (human) = PLK1 (human) (UniProt P53350)
PRKG1 (human) = PRKG1 (human) (UniProt Q13976)
PRKG2 (human) = PRKG2 (human) (UniProt Q13237)
PTK2B (human) = PTK2B (human) (UniProt Q14289)
TBK1 (human) = TBK1 (human) (UniProt Q9UHD2)
TBK1 (human), sequence (Q9UHD2 whole entry, looked up): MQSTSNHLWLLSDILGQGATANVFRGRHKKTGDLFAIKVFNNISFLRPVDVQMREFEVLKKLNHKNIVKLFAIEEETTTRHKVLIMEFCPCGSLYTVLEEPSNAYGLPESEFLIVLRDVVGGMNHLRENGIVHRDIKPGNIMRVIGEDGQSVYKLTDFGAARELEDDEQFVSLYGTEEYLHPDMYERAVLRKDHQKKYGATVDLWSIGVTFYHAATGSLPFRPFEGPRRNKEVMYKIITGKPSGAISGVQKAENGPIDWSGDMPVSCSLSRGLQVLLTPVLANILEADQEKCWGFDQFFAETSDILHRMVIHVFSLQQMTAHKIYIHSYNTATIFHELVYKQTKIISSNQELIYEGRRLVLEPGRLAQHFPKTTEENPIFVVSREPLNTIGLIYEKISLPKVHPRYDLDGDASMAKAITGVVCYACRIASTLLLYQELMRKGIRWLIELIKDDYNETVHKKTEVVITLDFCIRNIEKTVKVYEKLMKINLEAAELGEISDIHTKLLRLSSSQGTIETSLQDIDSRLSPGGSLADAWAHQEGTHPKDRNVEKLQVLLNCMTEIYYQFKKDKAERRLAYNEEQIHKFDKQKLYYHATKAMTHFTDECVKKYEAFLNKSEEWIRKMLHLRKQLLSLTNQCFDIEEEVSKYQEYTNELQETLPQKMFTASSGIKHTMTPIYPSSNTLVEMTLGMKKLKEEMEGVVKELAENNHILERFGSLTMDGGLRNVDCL

TRPM6 (human) = TRPM6 (human) (UniProt Q9BX84)
ULK1 (human) = ULK1 (human) (UniProt O75385)
VRK2 (human) = VRK2 (human) (UniProt Q86Y07)

CDC42BPB (human), sequence (Q9Y5S2 whole entry, looked up): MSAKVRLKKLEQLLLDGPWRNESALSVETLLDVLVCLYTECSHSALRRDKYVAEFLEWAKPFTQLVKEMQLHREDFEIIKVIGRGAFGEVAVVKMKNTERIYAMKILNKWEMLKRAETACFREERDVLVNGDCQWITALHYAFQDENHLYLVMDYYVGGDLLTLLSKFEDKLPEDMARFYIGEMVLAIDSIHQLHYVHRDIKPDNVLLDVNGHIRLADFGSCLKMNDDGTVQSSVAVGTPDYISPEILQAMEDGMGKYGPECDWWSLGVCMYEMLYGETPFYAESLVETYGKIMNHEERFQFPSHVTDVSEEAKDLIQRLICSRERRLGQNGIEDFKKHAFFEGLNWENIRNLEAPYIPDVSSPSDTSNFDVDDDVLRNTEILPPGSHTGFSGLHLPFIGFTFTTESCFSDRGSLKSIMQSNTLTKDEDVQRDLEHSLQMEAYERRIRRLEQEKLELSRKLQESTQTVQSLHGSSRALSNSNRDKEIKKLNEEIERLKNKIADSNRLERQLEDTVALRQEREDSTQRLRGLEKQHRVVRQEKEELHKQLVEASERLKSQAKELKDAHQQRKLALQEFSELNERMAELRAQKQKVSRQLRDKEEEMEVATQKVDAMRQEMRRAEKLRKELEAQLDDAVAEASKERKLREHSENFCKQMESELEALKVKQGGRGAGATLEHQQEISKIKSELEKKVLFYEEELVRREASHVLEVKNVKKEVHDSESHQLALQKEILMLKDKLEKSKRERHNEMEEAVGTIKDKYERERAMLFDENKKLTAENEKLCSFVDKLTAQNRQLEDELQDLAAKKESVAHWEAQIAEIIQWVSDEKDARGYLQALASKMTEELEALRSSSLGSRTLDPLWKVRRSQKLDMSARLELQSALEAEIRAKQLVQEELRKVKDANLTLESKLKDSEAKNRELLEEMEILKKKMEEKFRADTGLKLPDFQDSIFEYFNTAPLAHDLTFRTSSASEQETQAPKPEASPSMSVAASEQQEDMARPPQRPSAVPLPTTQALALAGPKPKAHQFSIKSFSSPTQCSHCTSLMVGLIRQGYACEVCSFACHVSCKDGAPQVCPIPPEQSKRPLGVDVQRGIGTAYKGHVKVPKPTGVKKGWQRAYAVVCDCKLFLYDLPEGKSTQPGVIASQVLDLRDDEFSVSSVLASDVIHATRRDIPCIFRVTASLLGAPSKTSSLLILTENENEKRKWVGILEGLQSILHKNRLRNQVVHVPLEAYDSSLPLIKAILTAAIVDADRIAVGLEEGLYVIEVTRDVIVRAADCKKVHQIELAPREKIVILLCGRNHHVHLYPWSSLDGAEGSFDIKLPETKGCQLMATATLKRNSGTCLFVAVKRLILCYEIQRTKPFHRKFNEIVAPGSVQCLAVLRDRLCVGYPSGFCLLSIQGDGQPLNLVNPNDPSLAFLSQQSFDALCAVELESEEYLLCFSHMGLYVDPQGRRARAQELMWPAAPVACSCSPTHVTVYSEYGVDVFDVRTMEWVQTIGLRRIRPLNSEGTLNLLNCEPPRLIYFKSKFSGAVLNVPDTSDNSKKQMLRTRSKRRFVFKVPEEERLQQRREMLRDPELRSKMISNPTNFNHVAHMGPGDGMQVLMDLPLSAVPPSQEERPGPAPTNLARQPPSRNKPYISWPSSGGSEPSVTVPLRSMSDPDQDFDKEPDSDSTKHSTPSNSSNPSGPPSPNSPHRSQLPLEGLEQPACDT

SMILES: CN(C)C/C=C/C(=O)Nc1cccc(C(=O)Nc2ccc(Nc3nccc(/C(C#N)=C4\Nc5ccccc5S4)n3)cc2)c1
- kinase still bound, per cent of control (AKT3 (human); compound 1.0 µM): 100%
- kinase still bound, per cent of control (AURKA (human); compound 1.0 µM): 100%
- kinase still bound, per cent of control (CDC42BPB (human); compound 1.0 µM): 100%
- kinase still bound, per cent of control (CDK13 (human); compound 1.0 µM): 100%
- kinase still bound, per cent of control (CDK16 (human); compound 1.0 µM): 100%
- kinase still bound, per cent of control (CDK7 (human); compound 1.0 µM): 94%
- kinase still bound, per cent of control (CaMK1 (human); compound 1.0 µM): 100%
- kinase still bound, per cent of control (DCLK2 (human); compound 1.0 µM): 100%
- kinase still bound, per cent of control (DSTYK (human); compound 1.0 µM): 100%
- kinase still bound, per cent of control (DYRK1A (human); compound 1.0 µM): 87%
- kinase still bound, per cent of control (EPHA3 (human); compound 1.0 µM): 100%
- kinase still bound, per cent of control (EPHA7 (human); compound 1.0 µM): 100%
- kinase still bound, per cent of control (EPHB2 (human); compound 1.0 µM): 77%
- kinase still bound, per cent of control (FGFR2 (human); compound 1.0 µM): 100%
- kinase still bound, per cent of control (FYN (human); compound 1.0 µM): 95%
- kinase still bound, per cent of control (GRK1 (human); compound 1.0 µM): 100%
- kinase still bound, per cent of control (GSK3A (human); compound 1.0 µM): 59%
- kinase still bound, per cent of control ([1]; compound 1.0 µM): 100%
- kinase still bound, per cent of control ([2]; compound 1.0 µM): 100%
- kinase still bound, per cent of control (LRRK2 (human); compound 1.0 µM): 57%
- kinase still bound, per cent of control (MAP2K2 (human); compound 1.0 µM): 100%
- kinase still bound, per cent of control (MAP2K4 (human); compound 1.0 µM): 100%
- kinase still bound, per cent of control (MAP3K3 (human); compound 1.0 µM): 100%
- kinase still bound, per cent of control (MAP3K7 (human); compound 1.0 µM): 58%
- kinase still bound, per cent of control (MAP4K4 (human); compound 1.0 µM): 100%
- kinase still bound, per cent of control (MAPK6 (human); compound 1.0 µM): 27%
- kinase still bound, per cent of control (MARK1 (human); compound 1.0 µM): 100%
- kinase still bound, per cent of control (MATK (human); compound 1.0 µM): 100%
- kinase still bound, per cent of control (MTOR (human); compound 1.0 µM): 100%
- kinase still bound, per cent of control (NEK11 (human); compound 1.0 µM): 100%
- kinase still bound, per cent of control (NEK7 (human); compound 1.0 µM): 100%
- kinase still bound, per cent of control (NTRK1 (human); compound 1.0 µM): 100%
- kinase still bound, per cent of control (PAK3 (human); compound 1.0 µM): 84%
- kinase still bound, per cent of control (PIK3CA (human); compound 1.0 µM): 64%
- kinase still bound, per cent of control ([3]; compound 1.0 µM): 100%
- kinase still bound, per cent of control (PLK1 (human); compound 1.0 µM): 96%
- kinase still bound, per cent of control (PRKG1 (human); compound 1.0 µM): 100%
- kinase still bound, per cent of control (PRKG2 (human); compound 1.0 µM): 100%
- kinase still bound, per cent of control (PTK2B (human); compound 1.0 µM): 100%
- kinase still bound, per cent of control (TBK1 (human); compound 1.0 µM): 100%
- kinase still bound, per cent of control (TRPM6 (human); compound 1.0 µM): 100%
- kinase still bound, per cent of control (ULK1 (human); compound 1.0 µM): 92%
- kinase still bound, per cent of control (VRK2 (human); compound 1.0 µM): 100%

SMILES: Cc1ccc(NC(=O)c2ccc(NC(=O)/C=C/CN(C)C)cc2)cc1Nc1nccc(-c2cccnc2)n1
- kinase still bound, per cent of control (AKT3 (human); compound 10.0 µM): 100%
- kinase still bound, per cent of control (AURKA (human); compound 10.0 µM): 100%
- kinase still bound, per cent of control (CDC42BPB (human); compound 10.0 µM): 78%
- kinase still bound, per cent of control (CDK13 (human); compound 10.0 µM): 65%
- kinase still bound, per cent of control (CDK16 (human); compound 10.0 µM): 100%
- kinase still bound, per cent of control (CDK7 (human); compound 10.0 µM): 68%
- kinase still bound, per cent of control (CaMK1 (human); compound 10.0 µM): 75%
- kinase still bound, per cent of control (DCLK2 (human); compound 10.0 µM): 100%
- kinase still bound, per cent of control (DSTYK (human); compound 10.0 µM): 81%
- kinase still bound, per cent of control (DYRK1A (human); compound 10.0 µM): 98%
- kinase still bound, per cent of control (EPHA3 (human); compound 10.0 µM): 83%
- kinase still bound, per cent of control (EPHA7 (human); compound 10.0 µM): 99%
- kinase still bound, per cent of control (EPHB2 (human); compound 10.0 µM): 100%
- kinase still bound, per cent of control (FGFR2 (human); compound 10.0 µM): 100%
- kinase still bound, per cent of control (FYN (human); compound 10.0 µM): 95%
- kinase still bound, per cent of control (GRK1 (human); compound 10.0 µM): 100%
- kinase still bound, per cent of control (GSK3A (human); compound 10.0 µM): 100%
- kinase still bound, per cent of control ([1]; compound 10.0 µM): 39%
- kinase still bound, per cent of control ([2]; compound 10.0 µM): 3.4%
- kinase still bound, per cent of control (LRRK2 (human); compound 10.0 µM): 41%
- kinase still bound, per cent of control (MAP2K2 (human); compound 10.0 µM): 74%
- kinase still bound, per cent of control (MAP2K4 (human); compound 10.0 µM): 15%
- kinase still bound, per cent of control (MAP3K3 (human); compound 10.0 µM): 81%
- kinase still bound, per cent of control (MAP3K7 (human); compound 10.0 µM): 61%
- kinase still bound, per cent of control (MAP4K4 (human); compound 10.0 µM): 78%
- kinase still bound, per cent of control (MAPK6 (human); compound 10.0 µM): 85%
- kinase still bound, per cent of control (MARK1 (human); compound 10.0 µM): 93%
- kinase still bound, per cent of control (MATK (human); compound 10.0 µM): 45%
- kinase still bound, per cent of control (MTOR (human); compound 10.0 µM): 100%
- kinase still bound, per cent of control (NEK11 (human); compound 10.0 µM): 78%
- kinase still bound, per cent of control (NEK7 (human); compound 10.0 µM): 20%
- kinase still bound, per cent of control (NTRK1 (human); compound 10.0 µM): 95%
- kinase still bound, per cent of control (PAK3 (human); compound 10.0 µM): 68%
- kinase still bound, per cent of control (PIK3CA (human); compound 10.0 µM): 100%
- kinase still bound, per cent of control ([3]; compound 10.0 µM): 88%
- kinase still bound, per cent of control (PLK1 (human); compound 10.0 µM): 83%
- kinase still bound, per cent of control (PRKG1 (human); compound 10.0 µM): 97%
- kinase still bound, per cent of control (PRKG2 (human); compound 10.0 µM): 74%
- kinase still bound, per cent of control (PTK2B (human); compound 10.0 µM): 100%
- kinase still bound, per cent of control (TBK1 (human); compound 10.0 µM): 64%
- kinase still bound, per cent of control (TRPM6 (human); compound 10.0 µM): 52%
- kinase still bound, per cent of control (ULK1 (human); compound 10.0 µM): 23%
- kinase still bound, per cent of control (VRK2 (human); compound 10.0 µM): 85%
